These results are taken from US8541585B2, “N-acyl cyclic amine derivative or pharmaceutically acceptable salt thereof” (Dainippon Sumitomo Pharma Co., Ltd., priority 2010, dated 2013).

One assay concerns the target human D2L receptor (Homo sapiens, UniProt P14416). Kind of assay: Dopamine D2L receptor binding assay ([3H]-spiperone). Conditions: 10 nM test drug, [3H]-spiperone 0.5 nM, human D2L receptor-expressing CHO cell membrane; for inhibition at 0.01 µM: read-out: BINDING INHIBITION RATE (%) D2L 10 nM. As for the experimental part:
(1) Dopamine D2L Receptor Binding Assay
D2L receptor binding assay was performed in reference to a method described by Hirose et al. (Japan. J. Pharmacol., 53, 321-329, 1990). After a reaction in a total volume of 200 μL of 50 mM Tris-HCl (pH=7.6) buffer solution containing 50 μL of [^3H]-spiperone (final concentration 0.5 nM), 1 μL of test drug in DMSO, and 149 μL of human D2L receptor-expressing CHO cell membrane sample, human D2L receptor binding activity of [^3H]-spiperone was measured. The reaction solution let stand for 60 minutes at room temperature, and then it was quickly added on a glass fiber filter plate (Multiscreen FB, Millipore inc.) coated with 0.3% polyethyleneimine (PEI) and filtered under reduced pressure. The glass fiber filter was washed with 200 μL of ice-cooled 50 mM Tris-HCl (pH=7.6) twice, repeatedly filtered under reduced pressure, and then transferred to a vial containing 4 mL of Ecoscint A (National Diagnostics inc.). The residual radioactivity on the glass fiber filter was measured by a liquid scintillation counter. Nonspecific binding was measured in the presence of 10 μM of spiperone, and [^3H]-spiperone binding inhibition rate in the presence of 10 nM of test drug was determined. The larger binding inhibition rate (%) means that test drug has the higher binding affinity for human D2L receptor.

The next assay addresses T1, human 5-HT6 receptor (Homo sapiens, UniProt P50406).
T1 construct: expressed in transfected cells; host or cells: CHO cells (membrane preparation)
Kind of assay: Serotonin 5-HT6 receptor binding assay ([3H]-clozapine). Particulars: 100 nM test drug, [3H]-clozapine 2 nM, human 5-HT6 receptor-expressing CHO cell membrane; for inhibition at 0.1 µM: read-out: BINDING INHIBITION RATE (%) 5HT6 100 nM. Here is the method: (3) Serotonin 5-HT6 Receptor Binding Assay
After a reaction in a total volume of 200 μL of 50 mM Tris-HCl (pH=7.6), 4 mM CaCl2, and 0.5 mM EDTA buffer solution containing 50 μL of [^3H]-clozapine (final concentration 2 nM), 1 μL of test drug in DMSO, and 149 μL of human 5-HT6 receptor-expressing CHO cell membrane sample, human 5-HT6 receptor binding activity of [^3H]-clozapine was measured. The reaction solution let stand for 40 minutes at room temperature, and then it was quickly added on a glass fiber filter plate (Multiscreen FB, Millipore inc.) coated with 0.3% polyethyleneimine (PEI) and filtered under reduced pressure. The glass fiber filter was washed with 200 μL of ice-cooled 50 mM Tris-HCl (pH=7.6) twice, repeatedly filtered under reduced pressure, and then transferred to a vial containing 4 mL of Ecoscint A (National Diagnostics inc.). The residual radioactivity on the glass fiber filter was measured by a liquid scintillation counter. Nonspecific binding was measured in the presence of 10 μM of SB-258585, and [^3H]-clozapine binding inhibition rate in the presence of 100 nM of test drug was determined.

A further assay addresses T2, human α1D receptor (Homo sapiens, UniProt P25100).
T2 construct: expressed in transfected cells; host or cells: CHO cells (membrane preparation)
T2 sequence (P25100 1-572): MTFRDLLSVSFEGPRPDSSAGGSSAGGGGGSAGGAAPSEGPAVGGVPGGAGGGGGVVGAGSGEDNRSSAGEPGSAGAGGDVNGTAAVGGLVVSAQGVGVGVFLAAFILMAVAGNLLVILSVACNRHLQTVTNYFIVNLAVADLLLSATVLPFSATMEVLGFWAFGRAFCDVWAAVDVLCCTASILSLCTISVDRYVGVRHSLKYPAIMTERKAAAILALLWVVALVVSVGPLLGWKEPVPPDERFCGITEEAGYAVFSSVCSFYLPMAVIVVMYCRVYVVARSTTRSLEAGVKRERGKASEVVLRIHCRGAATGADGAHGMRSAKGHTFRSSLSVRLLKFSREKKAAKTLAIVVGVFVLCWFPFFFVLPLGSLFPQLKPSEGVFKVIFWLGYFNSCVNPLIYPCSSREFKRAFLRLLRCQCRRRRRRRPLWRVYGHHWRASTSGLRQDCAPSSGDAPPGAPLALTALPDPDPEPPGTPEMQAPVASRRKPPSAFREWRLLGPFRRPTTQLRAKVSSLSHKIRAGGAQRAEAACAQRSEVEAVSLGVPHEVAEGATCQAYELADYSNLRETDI
As to the kind of experiment: Adrenaline α1D receptor binding assay ([3H]-prazosin). Particulars: 100 nM test drug, [3H]-prazosin 0.6 nM, human α1D receptor-expressing CHO cell membrane; for inhibition at 0.1 µM: read-out: BINDING INHIBITION RATE (%) α1D 100 nM. As for the experimental part:
(4) Adrenaline α1D Receptor Binding Assay
After a reaction in a total volume of 200 μL of 50 mM Tris-HCl (pH=7.6) buffer solution containing 50 μL of [^3H]-prazosin (final concentration 0.6 nM), 1 μL of test drug in DMSO, and 149 μL of human α1D receptor-expressing CHO cell membrane sample, human α1D receptor binding activity of [^3H]-prazosin was measured. The reaction solution let stand for 30 minutes at room temperature, and then it was quickly added on a glass fiber filter plate (Multiscreen FB, Millipore inc.) coated with 0.3% polyethyleneimine (PEI) and filtered under reduced pressure. The glass fiber filter was washed with 200 μL of ice-cooled 50 mM Tris-HCl (pH=7.6) twice, repeatedly filtered under reduced pressure, and then transferred to a vial containing 4 mL of Ecoscint A (National Diagnostics inc.). The residual radioactivity on the glass fiber filter was measured by a liquid scintillation counter. Nonspecific binding was measured in the presence of 1 μM of prazosin, and [^3H]-prazosin binding inhibition rate in the presence of 100 nM of test drug was determined.

In another assay the target is T3, human 5-HT2A receptor (Homo sapiens, UniProt P28223).
T3 construct: expressed in transfected cells; host or cells: CHO cells (membrane preparation)
Kind of assay: Serotonin 5-HT2A receptor binding assay ([3H]-ketanserin). Conditions: 10 nM test drug; [3H]-ketanserin 1 nM; human 5-HT2A receptor-expressing CHO cell membrane; read-out: BINDING INHIBITION RATE (%) 5HT2A 10 nM. As for the experimental part:
(2) Serotonin 5-HT2A Receptor Binding Assay
5-HT2A receptor binding assay was performed in reference to a method described by Hirose et al. (Japan. J. Pharmacol., 53, 321-329, 1990). After a reaction in a total volume of 200 μL of 50 mM Tris-HCl (pH=7.6) buffer solution containing 50 μL of [^3H]-ketanserin (final concentration 1 nM), 1 μL of test drug in DMSO, and 149 μL of human 5-HT2A receptor-expressing CHO cell membrane sample, human 5-HT2A receptor binding activity of [^3H]-ketanserin was measured. The reaction solution let stand for 15 minutes at 37° C., and then it was quickly added on a glass fiber filter plate (Multiscreen FB, Millipore inc.) coated with 0.05% Brij 35 and filtered under reduced pressure. The glass fiber filter was washed with 200 μL of ice-cooled 50 mM Tris-HCl (pH=7.6) twice, repeatedly filtered under reduced pressure, and then transferred to a vial containing 4 mL of Ecoscint A (National Diagnostics inc.). The residual radioactivity on the glass fiber filter was measured by a liquid scintillation counter. Nonspecific binding was measured in the presence of 10 μM of MDL-100907, and [^3H]-ketanserin binding inhibition rate in the presence of 1 nM or 10 nM of test drug was determined.

T1 sequence (P50406 whole entry): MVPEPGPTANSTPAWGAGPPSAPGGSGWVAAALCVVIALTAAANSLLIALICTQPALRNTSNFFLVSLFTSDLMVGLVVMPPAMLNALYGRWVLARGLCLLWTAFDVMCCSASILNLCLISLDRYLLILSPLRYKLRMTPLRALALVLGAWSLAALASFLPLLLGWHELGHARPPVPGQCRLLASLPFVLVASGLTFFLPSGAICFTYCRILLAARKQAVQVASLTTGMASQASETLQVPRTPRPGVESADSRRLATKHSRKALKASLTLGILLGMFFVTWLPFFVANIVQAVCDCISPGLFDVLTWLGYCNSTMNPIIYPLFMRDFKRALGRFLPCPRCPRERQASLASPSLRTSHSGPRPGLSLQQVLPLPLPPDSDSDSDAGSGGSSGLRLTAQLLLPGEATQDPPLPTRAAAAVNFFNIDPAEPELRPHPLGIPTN
Sequence of human D2L receptor (P14416 whole entry): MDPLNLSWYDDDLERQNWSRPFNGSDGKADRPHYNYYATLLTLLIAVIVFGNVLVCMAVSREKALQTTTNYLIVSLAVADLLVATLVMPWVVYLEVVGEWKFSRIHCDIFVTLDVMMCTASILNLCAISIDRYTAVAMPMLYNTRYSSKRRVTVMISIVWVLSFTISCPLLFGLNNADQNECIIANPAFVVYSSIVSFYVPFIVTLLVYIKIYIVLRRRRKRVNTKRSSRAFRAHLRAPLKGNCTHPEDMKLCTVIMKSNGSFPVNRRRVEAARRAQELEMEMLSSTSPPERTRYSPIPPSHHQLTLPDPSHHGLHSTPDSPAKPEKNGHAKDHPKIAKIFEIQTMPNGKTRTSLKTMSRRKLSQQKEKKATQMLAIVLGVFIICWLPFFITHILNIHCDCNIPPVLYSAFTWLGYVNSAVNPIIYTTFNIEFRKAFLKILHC
T3 sequence (P28223 whole entry): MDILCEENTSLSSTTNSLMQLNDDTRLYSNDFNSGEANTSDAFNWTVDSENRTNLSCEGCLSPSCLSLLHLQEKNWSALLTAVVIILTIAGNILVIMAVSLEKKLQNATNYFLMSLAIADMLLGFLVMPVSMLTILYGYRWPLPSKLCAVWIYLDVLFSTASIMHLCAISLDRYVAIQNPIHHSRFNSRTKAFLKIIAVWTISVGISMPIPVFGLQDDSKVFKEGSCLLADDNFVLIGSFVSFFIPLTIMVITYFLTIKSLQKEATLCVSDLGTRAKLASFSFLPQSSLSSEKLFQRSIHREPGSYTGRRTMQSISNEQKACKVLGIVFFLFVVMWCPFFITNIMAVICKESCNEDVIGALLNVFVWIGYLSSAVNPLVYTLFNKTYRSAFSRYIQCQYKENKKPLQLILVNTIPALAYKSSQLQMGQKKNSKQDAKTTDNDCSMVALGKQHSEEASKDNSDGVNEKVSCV

Turning to `O=C(/C=C/c1ccc2c(c1)OCO2)N1CCC[C@H](CCN2CCC(c3noc4cc(F)ccc34)CC2)C1` [Example 14], the inhibition (commonly the share of the control response that was lost under treatment) at 0.01 µM on human D2L receptor is 75%. The inhibition at 0.1 µM on human 5-HT6 receptor was determined as 92%; at human α1D receptor it was 89%.
Consider `O=C(c1cc2ccc(F)cc2[nH]1)N1CCC[C@H](CN2CCN(c3n[nH]c4ccccc34)CC2)C1` [Example 22], for which the inhibition at 0.01 µM at human D2L receptor was found to be 26%. Also, the inhibition at 0.1 µM on human 5-HT6 receptor turned out to be 85%.
Take `Cc1ccc2cc(C(=O)N3CCC[C@H]3CCN3CCN(c4n[nH]c5cc(F)ccc45)CC3)[nH]c2c1` [Example 24]: the inhibition at 0.01 µM on human D2L receptor was 88%. The results for the inhibition at 0.1 µM on human 5-HT6 receptor and at human α1D receptor were 98% and 64%, respectively.
As to `Cc1ccc2cc(C(=O)N3CCC[C@H]3CCN3CCN(c4n[nH]c5ccc(F)cc45)CC3)[nH]c2c1` [Example 25], the inhibition at 0.01 µM on human D2L receptor was 28%. Also, the inhibition at 0.1 µM on human 5-HT6 receptor was 82%.
Take `COc1ccc2[nH]c(C(=O)N3CCCC[C@H]3CCN3CCC(c4coc5cc(F)ccc45)CC3)cc2c1` [Example 30]: the inhibition at 0.01 µM on human D2L receptor came out at 92%; on human 5-HT2A receptor it was 95%. Also, the inhibition at 0.1 µM on human 5-HT6 receptor turned out to be 65%.
`O=C(c1cc2cc(O)ccc2[nH]1)N1CCOC[C@H]1CCN1CCC(c2c[nH]c3ccccc23)CC1` [Example 41]: on human D2L receptor, the inhibition at 0.01 µM came to 85%. For the same molecule, the results for the inhibition at 0.1 µM on human 5-HT6 receptor and at human α1D receptor were 78% and 81%, respectively.
With `O=C(c1ccc(F)cc1)C1CCN(CC[C@@H]2CCCN2C(=O)c2[nH]c3ccccc3c2-c2ccccc2)CC1` [Example 47], the inhibition at 0.01 µM at human D2L receptor was 72%. The results for the inhibition at 0.1 µM at human 5-HT6 receptor and at human α1D receptor were 94% and 85%, respectively.
In the case of `O=C(c1ccc(F)cc1)C1CCN(CC[C@@H]2CCCN2C(=O)c2cc3ccccc3n2C2CCOCC2)CC1` [Example 48], the inhibition at 0.01 µM on human D2L receptor turned out to be 82%. The inhibition at 0.1 µM turned out to be 97% at human 5-HT6 receptor and 40% on human α1D receptor.
With `O=C(c1ccc(F)cc1)C1CCN(CC[C@@H]2CCCN2C(=O)c2cc3ccccc3n2-c2ccncc2)CC1` [Example 49], the inhibition at 0.01 µM on human D2L receptor was determined as 83%. Further, the inhibition at 0.1 µM at human 5-HT6 receptor is 75%; on human α1D receptor, 30%.
On to `Cc1ccc2cc(C(=O)N3C[C@H](F)C[C@H]3CCN3CCC(C(=O)c4ccc(F)cc4)CC3)[nH]c2c1` [Example 53], for which, on human D2L receptor, the inhibition at 0.01 µM was 89%. Besides, the inhibition at 0.1 µM came out at 94% on human 5-HT6 receptor and 48% at human α1D receptor.
On to `N#CCCc1ccc2c(Cl)c(C(=O)N3CCC[C@H]3CCN3CCC(C(=O)c4ccc(F)cc4)CC3)[nH]c2c1` [Example 55], for which the inhibition at 0.01 µM at human D2L receptor stood at 83%. The inhibition at 0.1 µM at human 5-HT6 receptor came to 100%.
Take `O=C(c1cccc(-c2ccccc2)c1)N1CCC[C@@H](CCN2CCN(c3nsc4ccccc34)CC2)C1` [Example 57]: on human D2L receptor, the inhibition at 0.01 µM is 69%. For the same molecule, the values for the inhibition at 0.1 µM at human 5-HT6 receptor and at human α1D receptor were 86% and 76%, respectively.
With `CC(=O)Nc1cccc2cc(C(=O)N3CCC[C@H]3CCN3CCC(C(=O)c4ccc(F)cc4)CC3)n(C)c12` [Example 63], the inhibition at 0.01 µM at human D2L receptor turned out to be 0%. The inhibition at 0.1 µM at human 5-HT6 receptor turned out to be 17%.
Turning to `Cc1ccc2cc(C(=O)N3[C@H](CCN4CCC(C(=O)c5ccc(F)cc5)CC4)CC[C@@H]3C)[nH]c2c1` [Example 166, ((2S,5S)-2-(2-(4-(4-Fluorobenzoyl)piperidin-1-yl)ethyl)-5-methylpyrrolidin-1-yl)(6-methyl-1H-indol-2-yl)methanone], the inhibition at 0.01 µM at human D2L receptor turned out to be 88%. Moreover, the inhibition at 0.1 µM at human 5-HT6 receptor was 97%; on human α1D receptor it was 62%.
The like results for `C[C@H]1CC[C@@H](CCN2CCC(C(=O)c3ccc(F)cc3)CC2)N1C(=O)c1cc2ccc(C(F)(F)F)cc2[nH]1` [Example 167, ((2S,5S)-2-(2-(4-(4-Fluorobenzoyl)piperidin-1-yl)ethyl)-5-methylpyrrolidin-1-yl)(6-(trifluoromethyl)-1H-indol-2-yl)methanone] were, in that order, 75%, 95% and 33%.
The like results for `C[C@H]1CC[C@@H](CCN2CCC(C(=O)c3ccc(F)cc3)CC2)N1C(=O)c1cc2ccc(SC(F)(F)F)cc2[nH]1` [Example 168, ((2S,5S)-2-(2-(4-(4-Fluorobenzoyl)piperidin-1-yl)ethyl)-5-methylpyrrolidin-1-yl)(6-(trifluoromethylthio)-1H-indol-2-yl)methanone] were, in that order, 81%, 94% and 61%.
“(S)-(2-(2-(4-(6-Fluorobenzo[d]isoxazol-3-yl)piperidin-1-yl)ethyl)pyrrolidin-1-yl)(3-phenyl-1H-pyrazol-5-yl)methanone hydrochloride [Example 170]”: the “BINDING INHIBITION RATE (%) D2L 10 nM” value at human D2L receptor is reported as 87%. In addition, at human 5-HT6 receptor, the “BINDING INHIBITION RATE (%) 5HT6 100 nM” value stood at 95%. The “BINDING INHIBITION RATE (%) α1D 100 nM” value at human α1D receptor is 83%.
